Laboratory results: PubChem BioAssay AID2060889 (Molecular Pharmacology Branch, DTP, NCI, 2025)

System: LG0567-F671-PDC complex spheroids viability
Assay: Anticancer human tumor LG0567-F671-PDC patient-derived lung adenocarcinoma cell line growth inhibition [RAS]
Conditions: for IC50: curve of first compound; for viability, T/C: stronger effect = lower value; active = viability on the fitted dose curve at most 10% of control; inactive = the rest
Summary of the method: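 Tumour cells grown as complex spheroids with HUVEC endothelial cells and mesenchymal stem cells, treated with RAS pathway inhibitor combinations. Each agent spans half-log steps from near clinical Cmax, or 10 microM where Cmax is unknown.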

[1] = second compound 0.000949 µM, first compound 0.00316 µM
[2] = second compound 0.000949 µM, first compound 0.01 µM
[3] = second compound 0.000949 µM, first compound 0.0316 µM
[4] = second compound 0.000949 µM, first compound 0.1 µM
[5] = second compound 0.000949 µM, first compound 0.316 µM
[6] = second compound 0.000949 µM, first compound 1 µM
[7] = second compound 0.003 µM, first compound 0.00316 µM
[8] = second compound 0.003 µM, first compound 0.01 µM
[9] = second compound 0.003 µM, first compound 0.0316 µM
[10] = second compound 0.003 µM, first compound 0.1 µM
[11] = second compound 0.003 µM, first compound 0.316 µM
[12] = second compound 0.003 µM, first compound 1 µM
[13] = second compound 0.00949 µM, first compound 0.00316 µM
[14] = second compound 0.00949 µM, first compound 0.01 µM
[15] = second compound 0.00949 µM, first compound 0.0316 µM
[16] = second compound 0.00949 µM, first compound 0.1 µM
[17] = second compound 0.00949 µM, first compound 0.316 µM
[18] = second compound 0.00949 µM, first compound 1 µM
[19] = second compound 0.03 µM, first compound 0.00316 µM
[20] = second compound 0.03 µM, first compound 0.01 µM
[21] = second compound 0.03 µM, first compound 0.0316 µM
[22] = second compound 0.03 µM, first compound 0.1 µM
[23] = second compound 0.03 µM, first compound 0.316 µM
[24] = second compound 0.03 µM, first compound 1 µM
[25] = second compound 0.0949 µM, first compound 0.00316 µM
[26] = second compound 0.0949 µM, first compound 0.01 µM
[27] = second compound 0.0949 µM, first compound 0.0316 µM
[28] = second compound 0.0949 µM, first compound 0.1 µM
[29] = second compound 0.0949 µM, first compound 0.316 µM
[30] = second compound 0.0949 µM, first compound 1 µM
[31] = second compound 0.3 µM, first compound 0.00316 µM
[32] = second compound 0.3 µM, first compound 0.01 µM
[33] = second compound 0.3 µM, first compound 0.0316 µM
[34] = second compound 0.3 µM, first compound 0.1 µM
[35] = second compound 0.3 µM, first compound 0.316 µM
[36] = second compound 0.3 µM, first compound 1 µM
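Also: spheroids exposed to compound for seven days before readout.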
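For IC50 in this document: luminescence signal used as a proxy for viable cells.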

C=CC(=O)Nc1cc(Nc2nccc(-c3cn(C)c4ccccc34)n2)c(OC)cc1N(C)CCN(C)C + CCn1c(-c2cc(N3CCN(C)CC3)cnc2C(C)OC)c2c3cc(ccc31)-c1csc(n1)CC(NC(=O)C1CC1C)C(=O)N1CCCC(N1)C(=O)OCC(C)(C)C2
< 3.16 nM: IC50 (second compound 0.000949 µM) | IC50 (second compound 0.003 µM) | IC50 (second compound 0.00949 µM) | IC50 (second compound 0.03 µM) | IC50 (second compound 0.0949 µM) | IC50 (second compound 0.3 µM)
active: viability, T/C [5] 5.93% | viability, T/C [6] 2.95% | viability, T/C [8] 10.2% | viability, T/C [9] 8.59% | viability, T/C [10] 4.71% | viability, T/C [11] 3.14% | viability, T/C [12] 1.73% | viability, T/C [13] 6.67% | viability, T/C [14] 6.47% | viability, T/C [15] 4.89% | viability, T/C [16] 3.67% | viability, T/C [17] 1.84% | viability, T/C [18] 1.07% | viability, T/C [19] 3.85% | viability, T/C [20] 3.87% | viability, T/C [21] 11.8% | viability, T/C [22] 2.59% | viability, T/C [23] 1.49% | viability, T/C [24] 0.76% | viability, T/C [25] 3.44% | viability, T/C [26] 2.65% | viability, T/C [27] 2.81% | viability, T/C [28] 2.03% | viability, T/C [29] 1.32% | viability, T/C [30] 0.84% | viability, T/C [31] 2.71% | viability, T/C [32] 2.18% | viability, T/C [33] 2.37% | viability, T/C [34] 1.85% | viability, T/C [35] 1.11% | viability, T/C [36] 0.63%
inactive: viability, T/C [1] 24.1% | viability, T/C [2] 19.9% | viability, T/C [3] 17.7% | viability, T/C [4] 11.7% | viability, T/C [7] 11.5%

CC(Nc1ccc2c(c1)OCCn1cc(N3C(=O)OCC3C(F)F)nc1-2)C(N)=O (stereo unspecified) + CCn1c(-c2cc(N3CCN(C)CC3)cnc2C(C)OC)c2c3cc(ccc31)-c1csc(n1)CC(NC(=O)C1CC1C)C(=O)N1CCCC(N1)C(=O)OCC(C)(C)C2
inactive: viability, T/C [3] 19.3% | viability, T/C [4] 12.9%
active: viability, T/C [5] 10.5% | viability, T/C [6] 7.84% | viability, T/C (second compound 0.000949 µM, first compound 3.16 µM) 7.19% | viability, T/C (second compound 0.000949 µM, first compound 10 µM) 7.14% | viability, T/C [9] 7.68% | viability, T/C [10] 7.52% | viability, T/C [11] 5.35% | viability, T/C [12] 3.88% | viability, T/C (second compound 0.003 µM, first compound 3.16 µM) 3.53% | viability, T/C (second compound 0.003 µM, first compound 10 µM) 3.37% | viability, T/C [15] 5.03% | viability, T/C [16] 3.43% | viability, T/C [17] 3.46% | viability, T/C [18] 2.91% | viability, T/C (second compound 0.00949 µM, first compound 3.16 µM) 1.87% | viability, T/C (second compound 0.00949 µM, first compound 10 µM) 1.74% | viability, T/C [21] 3.07% | viability, T/C [22] 2.58% | viability, T/C [23] 1.57% | viability, T/C [24] 1.37% | viability, T/C (second compound 0.03 µM, first compound 3.16 µM) 1.64% | viability, T/C (second compound 0.03 µM, first compound 10 µM) 1.25% | viability, T/C [27] 2.35% | viability, T/C [28] 2.02% | viability, T/C [29] 1.42% | viability, T/C [30] 1.29% | viability, T/C (second compound 0.0949 µM, first compound 3.16 µM) 1.01% | viability, T/C (second compound 0.0949 µM, first compound 10 µM) 0.89% | viability, T/C [33] 2.27% | viability, T/C [34] 1.33% | viability, T/C [35] 1.26% | viability, T/C [36] 1.33% | viability, T/C (second compound 0.3 µM, first compound 3.16 µM) 1.18% | viability, T/C (second compound 0.3 µM, first compound 10 µM) 0.92%
< 31.6 nM: IC50 (second compound 0.000949 µM) | IC50 (second compound 0.003 µM) | IC50 (second compound 0.00949 µM) | IC50 (second compound 0.03 µM) | IC50 (second compound 0.0949 µM) | IC50 (second compound 0.3 µM)

O=C(c1ccc(F)c(F)c1Nc1ccc(I)cc1F)N1CC(O)([C@@H]2CCCCN2)C1 + CCn1c(-c2cc(N3CCN(C)CC3)cnc2C(C)OC)c2c3cc(ccc31)-c1csc(n1)CC(NC(=O)C1CC1C)C(=O)N1CCCC(N1)C(=O)OCC(C)(C)C2
inactive: viability, T/C [1] 21.6% | viability, T/C [2] 13.6%
active: viability, T/C [3] 8.81% | viability, T/C [4] 6.2% | viability, T/C [5] 1.53% | viability, T/C [6] 0.54% | viability, T/C [7] 8.59% | viability, T/C [8] 6.83% | viability, T/C [9] 4.65% | viability, T/C [10] 2.36% | viability, T/C [11] 1.05% | viability, T/C [12] 0.48% | viability, T/C [13] 5.45% | viability, T/C [14] 3.36% | viability, T/C [15] 2.12% | viability, T/C [16] 0.98% | viability, T/C [17] 0.46% | viability, T/C [18] 0.34% | viability, T/C [19] 3.69% | viability, T/C [20] 1.98% | viability, T/C [21] 1.07% | viability, T/C [22] 0.6% | viability, T/C [23] 0.54% | viability, T/C [24] 0.95% | viability, T/C [25] 1.82% | viability, T/C [26] 1.19% | viability, T/C [27] 0.64% | viability, T/C [28] 0.56% | viability, T/C [29] 0.47% | viability, T/C [30] 0.32% | viability, T/C [31] 1.58% | viability, T/C [32] 1.13% | viability, T/C [33] 0.59% | viability, T/C [34] 0.43% | viability, T/C [35] 0.53% | viability, T/C [36] 0.43%
< 3.16 nM: IC50 (second compound 0.000949 µM) | IC50 (second compound 0.003 µM) | IC50 (second compound 0.00949 µM) | IC50 (second compound 0.03 µM) | IC50 (second compound 0.0949 µM) | IC50 (second compound 0.3 µM)
